Legend:
[1] = Determination of the moisture stability of polymorphic forms of sofosbuvir and amorphous sofosbuvir (humidity chamber, XRPD before and after); type: physicochemical; conditions: for XRPD analysis, sample after storage at 40° C./75% RH for 18 h / Visual aspect, sample after storage at 40° C./75% RH for 18 h: after 18 h at 40° C./75% RH in humidity chamber; for Visual aspect, sample after storage at 40° C./75% RH for 18 h: footnote: gel/gum = sample deliquesced; for Visual aspect, sample before storage at 40° C./75% RH / XRPD analysis, sample before storage at 40° C./75% RH: 30 mg sample
Protocol: Even more precisely, the moisture stability of the polymorphic form is defined as the amount in mg of the polymorphic form which is present after an exposure of an amount of 30 mg of the polymorphic form to a relative humidity of (75±1) % at a temperature of (40±1)° C. for an exposure time of (18±1) hours in a humidity chamber, relative to the amount of 30 mg of the polymorphic form before said exposure, as determined via X-ray powder diffraction pattern analysis at a temperature in the range of from 15 to 25° C. with Cu-Kalpha1,2 radiation having a wavelength of 0.15419 nm of the polymorphic form before the exposure and via said X-ray powder diffraction pattern analysis after the exposure.
30 mg of a given polymorphic form of sofosbuvir or of amorphous sofosbuvir prepared according to Reference Examples 1 to 4 were analyzed via XRPD as described in Reference Example 6. Then, these polymorphic forms of sofosbuvir or of amorphous sofosbuvir were exposed to an atmosphere having a relative humidity (RH) of 75% and a temperature of 40° C. for 18 hours in a humidity chamber and analyzed via XRPD as described in Reference Example 6.
XRPD patterns were obtained with an X'Pert PRO diffractometer (PANalytical, Almelo, The Netherlands) equipped with a theta/theta coupled goniometer in transmission geometry, pro-grammable XYZ stage with well plate holder, Cu-Kalpha1,2 radiation source (wavelength 0.15419 nm) with a focusing mirror, a 0.5° divergence slit, a 0.02° soller slit collimator and a 0.5° anti-scattering slit on the incident beam side, a 2 mm anti-scattering slit, a 0.02° soller slit collimator, a Ni-filter and a solid state PIXcel detector on the diffracted beam side. The diffractogram was recorded at room temperature at a tube voltage of 40 kV, tube current of 40 mA, applying a stepsize of 0.013° 2-theta with 40 sec per step in the angular range of 2° to 40° 2-theta. A typical precision of the 2-theta values is in the range of ±0.2° 2-theta. Thus, a diffraction peak that appears for example at 9.4° 2-theta can appear between 9.2 and 9.6° 2-theta on most X-ray diffractometers under standard conditions.

[2] = 40° C., relative humidity 75%; cited from earlier work

| Structure (SMILES) | XRPD analysis, sample after storage at 40° C./75% RH for 18 h [1] | Visual aspect, sample after storage at 40° C./75% RH for 18 h [1] | Visual aspect, sample before storage at 40° C./75% RH [1] | XRPD analysis, sample before storage at 40° C./75% RH [1] | behaviour under stress conditions (deliquescence) [2] |
| --- | --- | --- | --- | --- | --- |
| CC(C)OC(=O)[C@H](C)N[P@](=O)(OC[C@H]1O[C@@H](n2ccc(=O)[nH]c2=O)[C@](C)(F)[C@@H]1O)Oc1ccccc1 [Amorphous] | amorphous | gel/gum*^) | white powder | amorphous | – |
| CC(C)OC(=O)[C@H](C)N[P@](=O)(OC[C@H]1O[C@@H](n2ccc(=O)[nH]c2=O)[C@](C)(F)[C@@H]1O)Oc1ccccc1 [Form 1] | amorphous | gel/gum*^) | white powder | crystalline, Form 1 | – |
| CC(C)OC(=O)[C@H](C)N[P@](=O)(OC[C@H]1O[C@@H](n2ccc(=O)[nH]c2=O)[C@](C)(F)[C@@H]1O)Oc1ccccc1 [Form 6] | crystalline, Form 6 | white powder | white powder | crystalline, Form 6 | – |
| CC(C)OC(=O)[C@H](C)N[P@](=O)(OC[C@H]1O[C@@H](n2ccc(=O)[nH]c2=O)[C@](C)(F)[C@@H]1O)Oc1ccccc1 [sofosbuvir, (S)-isopropyl 2-(((S)-(((2R,3R,4R,5R)-5-(2,4-dioxo-3,4-dihydropyrimidin-1(2H)-yl)-4-fluoro-3-hydroxy-4-methyltetrahydrofuran-2-yl)methoxy)(phenoxy)phosphoryl)-amino)propanoate] | – | – | – | – | deliquesces after a few hours |
| CC(C)OC(=O)[C@H](C)N[P@](=O)(OC[C@H]1O[C@@H](n2ccc(=O)[nH]c2=O)[C@](C)(F)[C@@H]1O)Oc1ccccc1 [Form 7] | crystalline, Form 7 | white powder | white powder | crystalline, Form 7 | – |
